pKi: −log10 of the molar value.
Legend:
[1] = molecular target: T1, Adrenergic receptor alpha-1 (Rattus norvegicus, UniProt P15823+P23944+P43140); assay: Displacement of [3H]prazosine from Alpha-1 adrenergic receptor in Sprague-Dawley rat brain P2 membranes after […] by liquid scintillation counting
T1 sequence (P15823 whole entry): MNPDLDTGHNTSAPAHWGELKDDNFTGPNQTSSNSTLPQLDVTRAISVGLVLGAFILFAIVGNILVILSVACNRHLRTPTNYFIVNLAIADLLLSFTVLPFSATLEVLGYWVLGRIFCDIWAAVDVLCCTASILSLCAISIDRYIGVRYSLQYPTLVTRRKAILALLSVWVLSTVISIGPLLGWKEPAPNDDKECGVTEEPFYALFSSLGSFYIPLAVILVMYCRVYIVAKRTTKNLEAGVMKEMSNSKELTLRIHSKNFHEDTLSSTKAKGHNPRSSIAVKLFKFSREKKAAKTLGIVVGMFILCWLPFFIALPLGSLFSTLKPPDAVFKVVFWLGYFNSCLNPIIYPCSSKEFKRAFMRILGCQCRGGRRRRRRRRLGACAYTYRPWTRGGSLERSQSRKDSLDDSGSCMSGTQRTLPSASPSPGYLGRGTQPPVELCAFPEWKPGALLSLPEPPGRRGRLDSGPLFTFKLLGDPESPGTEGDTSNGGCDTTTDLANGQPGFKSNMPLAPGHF
T1 sequence (P23944 whole entry): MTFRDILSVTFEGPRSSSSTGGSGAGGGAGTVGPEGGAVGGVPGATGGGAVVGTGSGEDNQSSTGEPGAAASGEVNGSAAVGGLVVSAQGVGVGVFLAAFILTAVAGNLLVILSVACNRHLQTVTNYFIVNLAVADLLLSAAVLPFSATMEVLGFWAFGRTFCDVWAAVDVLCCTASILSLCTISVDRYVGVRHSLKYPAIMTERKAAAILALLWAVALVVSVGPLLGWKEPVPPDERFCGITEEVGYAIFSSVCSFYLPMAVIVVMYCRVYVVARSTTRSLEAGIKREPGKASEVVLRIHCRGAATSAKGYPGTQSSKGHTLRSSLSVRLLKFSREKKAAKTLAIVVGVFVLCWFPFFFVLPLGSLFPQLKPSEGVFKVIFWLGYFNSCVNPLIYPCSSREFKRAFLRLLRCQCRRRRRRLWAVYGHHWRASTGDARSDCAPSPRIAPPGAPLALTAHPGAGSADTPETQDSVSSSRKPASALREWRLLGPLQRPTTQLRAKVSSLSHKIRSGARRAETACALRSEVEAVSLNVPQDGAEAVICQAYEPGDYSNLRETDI
T1 sequence (P43140 whole entry): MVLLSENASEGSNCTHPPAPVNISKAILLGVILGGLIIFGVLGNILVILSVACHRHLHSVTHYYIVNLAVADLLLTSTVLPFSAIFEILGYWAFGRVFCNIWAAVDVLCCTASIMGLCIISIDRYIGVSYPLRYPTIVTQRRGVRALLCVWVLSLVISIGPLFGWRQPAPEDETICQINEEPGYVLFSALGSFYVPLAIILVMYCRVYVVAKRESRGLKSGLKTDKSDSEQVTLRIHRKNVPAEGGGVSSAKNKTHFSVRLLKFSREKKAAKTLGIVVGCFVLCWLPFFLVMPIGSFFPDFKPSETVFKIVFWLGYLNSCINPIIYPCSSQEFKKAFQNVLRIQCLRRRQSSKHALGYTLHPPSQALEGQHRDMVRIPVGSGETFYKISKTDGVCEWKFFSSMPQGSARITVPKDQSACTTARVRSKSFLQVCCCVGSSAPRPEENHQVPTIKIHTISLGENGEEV

[2] = molecular target: T2, Adrenergic receptor alpha-2 (Rattus norvegicus, UniProt P22086+P19328+P22909); assay: Displacement of [3H]RX821002 from Alpha-2 adrenergic receptor in Sprague-Dawley rat brain P2 membranes after […] by liquid scintillation counting
T2 sequence (P22086 whole entry): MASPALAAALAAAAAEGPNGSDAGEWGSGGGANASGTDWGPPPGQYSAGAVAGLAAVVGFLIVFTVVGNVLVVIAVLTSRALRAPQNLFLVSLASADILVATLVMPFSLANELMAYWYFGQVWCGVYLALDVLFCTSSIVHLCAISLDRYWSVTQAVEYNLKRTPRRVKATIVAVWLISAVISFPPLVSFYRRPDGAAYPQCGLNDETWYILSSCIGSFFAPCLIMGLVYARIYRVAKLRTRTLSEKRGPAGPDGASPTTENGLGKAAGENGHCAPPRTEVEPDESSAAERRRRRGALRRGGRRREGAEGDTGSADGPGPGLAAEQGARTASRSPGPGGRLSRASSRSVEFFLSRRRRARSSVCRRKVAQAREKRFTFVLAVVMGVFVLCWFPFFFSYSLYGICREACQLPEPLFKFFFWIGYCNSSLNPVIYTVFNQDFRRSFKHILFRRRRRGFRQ
T2 sequence (P19328 whole entry): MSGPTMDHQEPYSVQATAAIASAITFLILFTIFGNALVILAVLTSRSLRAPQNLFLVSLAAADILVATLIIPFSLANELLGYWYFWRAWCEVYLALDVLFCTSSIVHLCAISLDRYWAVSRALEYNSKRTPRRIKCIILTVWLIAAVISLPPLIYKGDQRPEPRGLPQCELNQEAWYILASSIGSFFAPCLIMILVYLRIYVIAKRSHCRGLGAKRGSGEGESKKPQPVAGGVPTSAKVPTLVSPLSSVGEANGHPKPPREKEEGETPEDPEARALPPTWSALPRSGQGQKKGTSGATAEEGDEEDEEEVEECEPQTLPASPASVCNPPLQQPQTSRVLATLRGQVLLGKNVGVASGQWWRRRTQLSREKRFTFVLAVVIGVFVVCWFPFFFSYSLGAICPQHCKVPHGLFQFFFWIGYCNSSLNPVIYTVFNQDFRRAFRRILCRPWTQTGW
T2 sequence (P22909 whole entry): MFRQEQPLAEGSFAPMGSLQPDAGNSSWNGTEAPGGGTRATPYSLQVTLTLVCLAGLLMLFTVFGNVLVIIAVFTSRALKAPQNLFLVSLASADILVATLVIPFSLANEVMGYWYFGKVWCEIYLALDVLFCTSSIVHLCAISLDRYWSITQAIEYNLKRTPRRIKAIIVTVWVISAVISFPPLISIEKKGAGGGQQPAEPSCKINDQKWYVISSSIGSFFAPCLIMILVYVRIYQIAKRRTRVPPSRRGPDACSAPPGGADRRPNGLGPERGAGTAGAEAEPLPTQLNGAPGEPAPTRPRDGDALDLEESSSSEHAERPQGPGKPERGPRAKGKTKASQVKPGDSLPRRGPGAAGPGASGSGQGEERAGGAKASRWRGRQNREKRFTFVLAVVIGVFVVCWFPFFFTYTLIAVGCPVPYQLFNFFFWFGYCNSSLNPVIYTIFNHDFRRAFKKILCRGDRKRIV

[3] = molecular target: Nischarin (Rattus norvegicus, UniProt Q4G017); assay: Displacement of [3H]clonidine from Imidazoline receptor 1 in Sprague-Dawley rat kidney P2 membranes after […] by liquid scintillation counting
[4] = Displacement of [3H]2BFI from Imidazoline receptor 2 in Sprague-Dawley rat brain P2 membrans after […] by liquid scintillation counting

Chain of Nischarin (Q4G017 whole entry): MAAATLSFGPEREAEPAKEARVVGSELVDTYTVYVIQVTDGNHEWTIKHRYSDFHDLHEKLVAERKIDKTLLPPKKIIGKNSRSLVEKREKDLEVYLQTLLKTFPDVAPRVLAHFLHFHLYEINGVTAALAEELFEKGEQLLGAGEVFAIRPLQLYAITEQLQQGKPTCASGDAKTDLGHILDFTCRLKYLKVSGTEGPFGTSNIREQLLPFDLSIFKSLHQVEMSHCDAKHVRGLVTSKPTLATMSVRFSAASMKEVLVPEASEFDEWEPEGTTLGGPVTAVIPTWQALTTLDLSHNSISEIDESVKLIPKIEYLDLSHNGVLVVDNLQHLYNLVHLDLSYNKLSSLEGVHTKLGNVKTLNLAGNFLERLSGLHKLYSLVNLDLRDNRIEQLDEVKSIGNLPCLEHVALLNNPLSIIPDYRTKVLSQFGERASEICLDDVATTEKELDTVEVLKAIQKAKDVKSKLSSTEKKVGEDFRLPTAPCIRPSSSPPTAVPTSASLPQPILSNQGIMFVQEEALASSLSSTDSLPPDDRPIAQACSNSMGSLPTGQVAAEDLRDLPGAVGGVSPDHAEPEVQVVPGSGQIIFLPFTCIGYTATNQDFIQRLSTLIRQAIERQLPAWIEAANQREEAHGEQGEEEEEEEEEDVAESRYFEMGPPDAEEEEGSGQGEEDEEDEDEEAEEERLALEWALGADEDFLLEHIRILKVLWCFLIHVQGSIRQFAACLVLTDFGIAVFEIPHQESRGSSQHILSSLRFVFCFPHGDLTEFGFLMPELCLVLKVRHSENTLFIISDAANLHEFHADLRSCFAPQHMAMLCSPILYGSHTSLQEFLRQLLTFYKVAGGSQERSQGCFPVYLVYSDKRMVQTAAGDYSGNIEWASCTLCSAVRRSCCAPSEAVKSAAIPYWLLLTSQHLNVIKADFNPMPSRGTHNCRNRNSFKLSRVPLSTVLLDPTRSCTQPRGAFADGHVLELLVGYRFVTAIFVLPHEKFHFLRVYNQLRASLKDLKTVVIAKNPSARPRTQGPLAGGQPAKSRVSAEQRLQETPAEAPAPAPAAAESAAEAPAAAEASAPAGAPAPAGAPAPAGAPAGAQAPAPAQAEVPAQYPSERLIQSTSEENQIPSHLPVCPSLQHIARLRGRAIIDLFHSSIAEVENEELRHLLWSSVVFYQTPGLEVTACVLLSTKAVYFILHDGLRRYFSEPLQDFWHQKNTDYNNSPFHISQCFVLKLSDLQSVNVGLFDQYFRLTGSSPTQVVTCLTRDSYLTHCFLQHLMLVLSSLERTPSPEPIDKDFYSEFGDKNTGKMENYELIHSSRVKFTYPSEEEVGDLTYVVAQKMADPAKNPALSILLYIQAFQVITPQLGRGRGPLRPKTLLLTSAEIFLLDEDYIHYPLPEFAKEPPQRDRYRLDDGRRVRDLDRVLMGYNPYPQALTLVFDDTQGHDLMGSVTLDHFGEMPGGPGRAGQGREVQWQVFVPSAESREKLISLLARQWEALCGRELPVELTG

SMILES	Ki [1] [nM]	Ki [2] [nM]	pKi [3]	pKi [4]
Cl.Fc1cccc2ccn(CC3=NCCN3)c12	36.7	16.57	5.02	7.49
Cl.Clc1ccc2ccn(CC3=NCCN3)c2c1	228.7	94.5	5.25	7.31
Brc1cccc2ccn(CC3=NCCN3)c12.Cl	7.91	18.3	7.10	6.59
Br.COc1cccc2ccn(CC3=NCCN3)c12	394.2	280	3.23	5.61
Brc1cccc2c1ccn2CC1=NCCN1.Cl	257.7	84.4	6.33	6.75
Brc1ccc2c(ccn2CC2=NCCN2)c1.Cl	1348	596.7	4.98	7.52
Br.c1ccc(COc2cccc3ccn(CC4=NCCN4)c23)cc1	381.8	5241	4.44	4.98
Cl.Fc1cccc2c1ccn2CC1=NCCN1	27.56	46.97	4.84	6.60
Cl.Fc1ccc2c(ccn2CC2=NCCN2)c1	306.7	68.43	7.49	7.18
Cl.Fc1ccc2ccn(CC3=NCCN3)c2c1	87.83	15.9	6.10	6.62
CCc1cccc2ccn(CC3=NCCN3)c12.Cl	439.4	71.7	4.34	6.06
